In one assay the target is Cytochrome P450 3A4 (Homo sapiens, UniProt P08684). To be noted: Potency.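 Note: confirmatory qHTS run detecting inhibitors and substrates of CYP3A4.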
Assay [1] has as its target Glyceraldehyde-3-phosphate dehydrogenase (Homo sapiens, UniProt P04406).
The target of assay [2] is T1, Alkaline phosphatase, tissue-nonspecific isozyme (Homo sapiens, UniProt P05186).
T1 sequence (P05186 whole entry): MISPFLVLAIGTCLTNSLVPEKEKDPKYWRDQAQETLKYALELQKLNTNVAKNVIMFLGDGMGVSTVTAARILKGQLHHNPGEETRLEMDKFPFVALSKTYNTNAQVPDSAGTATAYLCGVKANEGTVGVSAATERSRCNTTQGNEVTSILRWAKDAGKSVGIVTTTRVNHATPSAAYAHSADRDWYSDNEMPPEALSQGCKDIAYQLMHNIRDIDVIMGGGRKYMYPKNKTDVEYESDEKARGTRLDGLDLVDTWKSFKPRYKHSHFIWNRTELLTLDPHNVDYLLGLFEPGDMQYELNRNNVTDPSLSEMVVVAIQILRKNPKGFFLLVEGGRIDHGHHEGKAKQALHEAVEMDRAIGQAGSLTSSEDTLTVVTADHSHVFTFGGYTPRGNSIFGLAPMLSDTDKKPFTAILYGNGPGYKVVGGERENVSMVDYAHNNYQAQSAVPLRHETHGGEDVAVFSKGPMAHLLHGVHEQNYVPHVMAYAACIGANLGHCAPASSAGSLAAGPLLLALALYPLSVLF
In words: potency against alkaline phosphatase TNAP – biochemical, luminescent, dose response, SAR follow-up (AID 1056).

For assay [3], the target named is G-protein coupled receptor 55 (Homo sapiens, UniProt Q9Y2T6). In words: inhibition of LPI-stimulated GPR55 beta-arrestin translocation – imaging, U2OS, beta-arrestin-GFP, LPI agonist, primary screen (AID 2013).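 Note: antagonist potency measured as reduced agonist-driven arrestin aggregation.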 It is filed as functional.
Assay [4] can be described thus: Luminescent dose response cell-based high throughput screening assay for inhibitors of the Janus kinase 2 mutant JAK2V617F. [Related pubchem assays: 1446 (Primary screen.), 1521 (Confirmation assay.), 1486 (Counter screen.)]. In kind it is functional. A general note: Counterscreens check selectivity or assay interference.
Assay [5] deals with T2, Heat shock factor protein 1 (Mus musculus, UniProt P38532).
T2 sequence (P38532 whole entry): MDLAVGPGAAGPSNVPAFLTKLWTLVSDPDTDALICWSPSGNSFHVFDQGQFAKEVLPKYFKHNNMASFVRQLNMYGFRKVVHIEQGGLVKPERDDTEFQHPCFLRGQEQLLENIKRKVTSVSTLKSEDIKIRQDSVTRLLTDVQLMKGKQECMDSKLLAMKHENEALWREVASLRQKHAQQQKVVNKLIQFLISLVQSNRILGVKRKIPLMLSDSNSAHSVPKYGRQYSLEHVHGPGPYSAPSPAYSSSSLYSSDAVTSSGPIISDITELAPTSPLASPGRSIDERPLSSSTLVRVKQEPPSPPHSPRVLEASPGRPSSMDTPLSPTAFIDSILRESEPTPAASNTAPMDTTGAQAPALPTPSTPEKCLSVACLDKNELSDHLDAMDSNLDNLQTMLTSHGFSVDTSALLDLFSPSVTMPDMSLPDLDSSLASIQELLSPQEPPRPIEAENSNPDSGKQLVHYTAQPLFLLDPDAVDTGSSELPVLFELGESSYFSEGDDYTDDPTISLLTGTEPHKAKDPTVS
The experiment in a line: decrease of HSF1-responsive luciferase luminescence – cell-based, NIH3T3, dose retest, confirmation (AID 2382).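 Note: NIH3T3 fibroblasts with HSF1-driven luciferase reporter stressed by proteasome inhibitor MG132; luminescence from HSF1-driven luciferase expression after 8 hours of MG132 stress.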 It is filed as functional.

For a further assay, the target named is T3, Protein RecA (Mycobacterium tuberculosis, UniProt P9WHJ3).
T3 sequence (P9WHJ3 whole entry): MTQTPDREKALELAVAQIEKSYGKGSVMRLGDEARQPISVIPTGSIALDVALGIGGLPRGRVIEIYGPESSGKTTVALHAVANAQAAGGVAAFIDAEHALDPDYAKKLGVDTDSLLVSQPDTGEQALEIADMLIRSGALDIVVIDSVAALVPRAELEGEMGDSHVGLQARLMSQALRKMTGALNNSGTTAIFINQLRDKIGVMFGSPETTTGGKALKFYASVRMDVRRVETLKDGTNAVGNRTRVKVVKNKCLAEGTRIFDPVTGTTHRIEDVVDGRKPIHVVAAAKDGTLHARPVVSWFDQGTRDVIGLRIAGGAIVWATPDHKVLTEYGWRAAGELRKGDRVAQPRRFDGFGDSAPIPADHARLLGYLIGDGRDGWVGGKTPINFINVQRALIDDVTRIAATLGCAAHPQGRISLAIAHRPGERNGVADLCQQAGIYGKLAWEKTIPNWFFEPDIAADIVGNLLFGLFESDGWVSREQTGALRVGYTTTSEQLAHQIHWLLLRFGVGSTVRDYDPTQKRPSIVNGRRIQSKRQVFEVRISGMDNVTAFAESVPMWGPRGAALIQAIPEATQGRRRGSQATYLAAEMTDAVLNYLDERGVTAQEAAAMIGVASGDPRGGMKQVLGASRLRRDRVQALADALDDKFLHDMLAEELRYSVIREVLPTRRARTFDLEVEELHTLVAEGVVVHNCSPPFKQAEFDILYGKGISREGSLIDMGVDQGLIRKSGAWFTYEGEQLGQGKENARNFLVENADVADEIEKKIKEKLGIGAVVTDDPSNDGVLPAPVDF
In words: Fluorescence Cell-Free Homogeneous Dose Retest to Identify Inhibitors of RecA-Intein Splicing Activity. [Related pubchem assays (depositor defined):AID2097, AID2223, AID489010, AID492950]. It is filed as functional.

A short description of assay [6]: Luminescence Cell-Based Dose Confirmation HTS to Identify Activators of 5'UTR Stem-Loop Driven Alpha-Synuclein mRNA Translation in H4 Neuroglioblastoma Cells. [Related pubchem assays: 1829 (Project Summary), 1814 (Primary HTS)]. In kind it is functional.
A short description of assay [7]: Luminescence Cell-Based Dose Response HTS to Identify Activators of Luciferase Translation or Activity in H4 […] Cells. [Related pubchem assays: 1829 (Project Summary), 1814 (Primary HTS)]. It is filed as functional.
A further assay has as its system H4. The experiment in a line: Luminescence Cell-Based Dose Response HTS to Identify Activators of 5'UTR Stem-Loop Driven Prion Protein mRNA Translation in H4 Neuroglioblastoma Cells. [Related pubchem assays: 1829 (Project Summary), 1814 (Primary HTS)]. In kind it is functional. To be noted: Homo sapiens.
In another assay the target is T4, Aminopeptidase N (Plasmodium falciparum FcB1/Columbia, UniProt O96935).
T4 sequence (O96935 whole entry): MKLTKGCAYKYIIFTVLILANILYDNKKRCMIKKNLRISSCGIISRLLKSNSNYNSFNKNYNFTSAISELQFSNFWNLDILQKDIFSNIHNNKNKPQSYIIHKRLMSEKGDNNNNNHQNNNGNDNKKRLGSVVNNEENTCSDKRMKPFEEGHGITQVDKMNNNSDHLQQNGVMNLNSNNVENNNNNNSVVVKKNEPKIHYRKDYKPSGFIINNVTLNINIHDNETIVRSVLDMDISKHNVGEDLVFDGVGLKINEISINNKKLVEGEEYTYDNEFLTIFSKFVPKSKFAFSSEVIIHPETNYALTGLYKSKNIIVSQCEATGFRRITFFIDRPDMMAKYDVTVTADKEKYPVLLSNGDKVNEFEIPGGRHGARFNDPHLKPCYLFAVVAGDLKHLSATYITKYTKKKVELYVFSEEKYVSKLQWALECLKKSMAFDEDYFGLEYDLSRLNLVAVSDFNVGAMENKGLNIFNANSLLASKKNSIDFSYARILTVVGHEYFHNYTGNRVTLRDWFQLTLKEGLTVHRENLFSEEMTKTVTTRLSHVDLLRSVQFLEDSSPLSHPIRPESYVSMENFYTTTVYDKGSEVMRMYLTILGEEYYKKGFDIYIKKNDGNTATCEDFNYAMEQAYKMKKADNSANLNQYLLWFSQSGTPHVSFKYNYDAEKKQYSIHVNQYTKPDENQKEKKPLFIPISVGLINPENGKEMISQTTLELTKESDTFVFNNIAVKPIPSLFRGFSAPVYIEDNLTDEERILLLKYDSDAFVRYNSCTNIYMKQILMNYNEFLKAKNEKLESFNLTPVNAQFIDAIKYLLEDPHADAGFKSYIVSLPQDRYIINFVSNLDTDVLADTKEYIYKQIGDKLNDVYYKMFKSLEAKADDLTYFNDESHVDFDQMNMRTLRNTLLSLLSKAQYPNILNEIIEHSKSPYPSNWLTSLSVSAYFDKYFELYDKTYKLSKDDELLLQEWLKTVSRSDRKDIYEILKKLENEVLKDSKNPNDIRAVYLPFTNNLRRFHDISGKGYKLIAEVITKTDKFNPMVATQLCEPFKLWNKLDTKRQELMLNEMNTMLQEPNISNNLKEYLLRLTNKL
The experiment in a line: malaria alanyl aminopeptidase activity blockers – biochemical, fluorogenic H-Leu-NHMec substrate, 1536-well (AID 1445). Also noted: species or system Plasmodium falciparum 3D7, 3D7.

A short description of assay [8]: Luminescence Cell-Based Dose Retest to Confirm Inhibitors of Cancer Stem Cells. [Related pubchem assays (depositor defined):AID2717, AID2721]. In kind it is functional. To be noted: Homo sapiens.
Assay [9] has as its target T5, Microphthalmia-associated transcription factor (Homo sapiens, UniProt O75030).
T5 sequence (O75030 whole entry): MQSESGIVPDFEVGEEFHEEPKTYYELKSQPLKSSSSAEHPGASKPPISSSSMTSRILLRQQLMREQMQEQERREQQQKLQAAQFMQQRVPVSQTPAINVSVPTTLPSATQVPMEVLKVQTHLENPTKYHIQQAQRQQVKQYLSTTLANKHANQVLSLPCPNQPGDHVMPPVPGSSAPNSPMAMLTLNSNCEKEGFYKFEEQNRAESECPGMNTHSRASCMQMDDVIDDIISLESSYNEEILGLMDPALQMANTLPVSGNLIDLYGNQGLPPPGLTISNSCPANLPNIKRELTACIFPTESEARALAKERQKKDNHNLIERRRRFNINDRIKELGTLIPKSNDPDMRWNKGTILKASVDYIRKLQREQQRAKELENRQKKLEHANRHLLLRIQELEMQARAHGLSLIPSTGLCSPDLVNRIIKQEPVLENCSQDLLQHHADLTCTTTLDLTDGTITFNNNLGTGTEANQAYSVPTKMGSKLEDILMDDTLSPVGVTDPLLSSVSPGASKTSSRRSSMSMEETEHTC
The experiment in a line: reducers of TRPM1 reporter luminescence, concentration series – cell-based, SK-MEL-5, cherry-picked, set 3, MITF inhibitor project, dose response (AID 493073).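 Note: SK-MEL-5 melanoma cells with luciferase driven by the MITF target TRPM1 promoter.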 In kind it is functional.

Each structure is given as a SMILES string. Where “and” joins values, the source holds several entries; their conditions need not be identical. Identical values can stand only once. Calls of active or inactive are those of the source.

Sequence of Cytochrome P450 3A4 (P08684 whole entry): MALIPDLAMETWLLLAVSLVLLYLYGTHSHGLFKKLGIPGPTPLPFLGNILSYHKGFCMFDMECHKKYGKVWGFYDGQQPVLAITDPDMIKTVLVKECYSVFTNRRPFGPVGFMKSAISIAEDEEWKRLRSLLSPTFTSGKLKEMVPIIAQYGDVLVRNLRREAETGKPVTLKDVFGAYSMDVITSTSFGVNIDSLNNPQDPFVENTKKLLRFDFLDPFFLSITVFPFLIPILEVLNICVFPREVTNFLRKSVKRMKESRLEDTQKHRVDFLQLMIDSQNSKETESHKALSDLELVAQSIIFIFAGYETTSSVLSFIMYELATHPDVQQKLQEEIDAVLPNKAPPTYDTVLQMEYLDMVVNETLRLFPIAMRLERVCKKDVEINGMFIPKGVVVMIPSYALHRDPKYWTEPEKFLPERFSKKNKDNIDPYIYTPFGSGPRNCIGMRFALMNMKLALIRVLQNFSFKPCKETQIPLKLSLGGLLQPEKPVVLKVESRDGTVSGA
Sequence of G-protein coupled receptor 55 (Q9Y2T6 whole entry): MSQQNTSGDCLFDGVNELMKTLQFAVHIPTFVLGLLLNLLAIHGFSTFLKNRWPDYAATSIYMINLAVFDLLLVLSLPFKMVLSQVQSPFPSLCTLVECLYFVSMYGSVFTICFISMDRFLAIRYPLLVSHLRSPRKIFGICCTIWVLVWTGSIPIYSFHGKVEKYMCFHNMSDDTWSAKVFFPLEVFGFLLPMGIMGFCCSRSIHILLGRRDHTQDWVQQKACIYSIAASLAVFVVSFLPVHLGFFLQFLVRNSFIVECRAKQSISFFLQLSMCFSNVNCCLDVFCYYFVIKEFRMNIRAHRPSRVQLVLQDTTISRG
Sequence of Glyceraldehyde-3-phosphate dehydrogenase (P04406 whole entry): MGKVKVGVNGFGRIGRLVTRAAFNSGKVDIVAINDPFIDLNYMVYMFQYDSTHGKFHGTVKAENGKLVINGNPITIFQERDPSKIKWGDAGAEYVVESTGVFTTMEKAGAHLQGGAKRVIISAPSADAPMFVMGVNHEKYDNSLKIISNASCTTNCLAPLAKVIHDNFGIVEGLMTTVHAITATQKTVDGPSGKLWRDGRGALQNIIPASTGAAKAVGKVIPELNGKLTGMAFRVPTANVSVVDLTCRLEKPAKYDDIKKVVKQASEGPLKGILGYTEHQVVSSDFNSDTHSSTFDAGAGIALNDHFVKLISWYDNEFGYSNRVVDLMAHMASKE

Turning to `CNNC`, the AC50 at Cytochrome P450 3A4 is 31.6 µM (inconclusive).

For `C=C(C)C(O)/C=C/c1ccccc1OC` (stereo unspecified), the half-maximal activity concentration (AC50) on Cytochrome P450 3A4 was 2.51 µM (inconclusive).

`NCc1cc(-c2cccnc2)n[nH]1`: the IC50 in [1] was > 100 µM (not active); in [2], > 100 µM (inactive).

`O=C(Nc1ccccc1N1CCCCC1)c1ccc(N2C(=O)c3ccccc3C2=O)cc1`: the IC50 in [3] was 1.99 µM (active).

Regarding `O=C(CCl)N(C/C=C/c1ccccc1)c1ccc2c(c1)OCCO2`, the IC50 in assay [4] is 0.605 µM (active). Further, the concentration giving a half-maximal response (EC50) is 1.67 µM (active) in [5] and 0.356 µM (active) at Protein RecA.

On to `COC(=O)c1ccc(C23CC4(C2)[C@H](CN(C)[C@@H]4c2ccccc2)C3c2ccc(C(F)(F)F)cc2)cc1` (stereo partly specified), for which the half-maximal activity concentration (AC50) at Cytochrome P450 3A4 was 15.8 µM (inconclusive).

On to `COc1ccc(OC)c(NS(=O)(=O)c2ccc(SC)cc2)c1`, for which, in assay [4], the 50% inhibitory concentration (IC50) is 3.35 µM (active). Further, the 50% effective concentration (EC50) in assay [6] was > 120 µM (not active); in assay [7] it was 6.98 µM (active); in the assay with H4, 44.8 µM (active).

On to `NS(=O)(=O)c1ccc(CCNC(=O)COC(=O)CCSc2ccc(Cl)cc2)cc1`, for which, on Aminopeptidase N, the IC50 was 46.8 µM (active).

As for `CCCN1[C@H](C(=O)OC)C[C@@H]2CC[C@@H](O)C[C@@H]21`, the AC50 at Cytochrome P450 3A4 is 15.8 µM (inconclusive).

In the case of `CCOC(=O)C1=C(Nc2ccc(OC)cc2)S/C(=C\c2ccc(OCC(=O)O)c(OC)c2)C1=O`, at Aminopeptidase N, the half-maximal inhibitory concentration (IC50) was 87.3 µM (active).

`COC(=O)[C@@H]1C[C@@H]2CC[C@@H](O)C[C@@H]2N1Cc1ccc(N2CCOCC2)cc1`: the half-maximal activity concentration (AC50) at Cytochrome P450 3A4 is 3.98 µM (inconclusive).

`CCCCc1cc(=O)oc2cc(C)cc(OCc3nn[nH]n3)c12`: the 50% inhibitory concentration (IC50) on Aminopeptidase N is 63.6 µM (active).

In the case of `O=S(=O)(Nc1ccc2ccccc2c1)c1cc(Cl)ccc1Cl`, the IC50 was > 100 µM (not active) in [1]; > 100 µM (inactive) and > 10 µM (inactive) in [2].

In the case of `CN(CC(O)CON=C1c2ccccc2-c2ccccc21)S(=O)(=O)c1ccc(Br)cc1` (stereo unspecified), in assay [3], the IC50 is 2.14 µM (active). For the same molecule, the AC50 in assay [8] was 4.11 µM (active).

For the molecule `CC(C)CN=C(NS(=O)(=O)c1ccccc1)C(Cl)(Cl)Cl`, the concentration for a half-maximal effect (EC50) in assay [5] is 7.41 µM (active). The IC50 in [3] was 2.02 µM (active). For the same molecule, the values for the AC50 in assay [8] and in assay [9] were 2.15 µM (active) and 11.1 µM (active), respectively.

As usually defined, the AC50 is the concentration at which the activity in the assay is half-maximal. One may read the IC50 as the concentration that gives 50% inhibition. The EC50 is the concentration at which the effect is half-maximal.

Source of the values: ChEMBL document CHEMBL1201862, “PubChem BioAssay data set” (2004).
